Assay results reported in US20260069581A1, “METHODS AND COMPOSITIONS FOR CANCER THERAPY” (OHIO STATE INNOVATION FOUNDATION, priority 2020, published 2026).

What was measured:
[1] = In vivo MOLM13 xenograft study, toxicities and weight; design: species or system NCG mice; settings: over the course of the study (FIG. 11B)
Description: FIG. 11A show H&E images of tissues obtained from MOLM13 xenograft mice that with the magnification and treatments as indicated in the figure. The images were representative of 3 different fields. […] FIG. 11B show weight change data of MOLM13 xenograft mice in response to different treatments.
In vivo MOLM13 xenograft study. All experiments were approved by the OSU Institutional Animal Care and Use Committee. Male NOD-Prkdc^em26cd52Il2rg^em26cd22/NjuCrl (NCG) mice (RRID:IMSR_CRL:572) (aged 6-8 weeks) were obtained from Charles River Laboratory. Mice were group-housed under conditions of constant photoperiod (12-hour light/12-hour dark), temperature, and humidity with adlibitum access to water and irradiated standard pelleted chow. […] luciferase-tagged MOLM13 cells were injected via tail vein into NCG mice. On day 5 post-engraftment, mice were randomized to receive placebo (vehicle; Karyopharm Therapeutics) once daily, 100 mg/kg of KPT-9274 (Karyopharm Therapeutics) once daily, 20 mg/kg AR-42 every another day and the combination of KPT-9274 and AR-42 via oral gavage. Overall survival was the primary end point for the majority of the mice. […] Mice were monitored by animal technicians who were blinded to the treatment groups and determined when mice met early removal criteria (20% weight loss, lethargy, hunching, and poor body condition). […]

[2] = in vivo; cited from earlier work
leukemia stem cells = settings: caspase-dependent apoptosis, Ref. 28; cited from earlier work
[3] = test system: shRNA-stable Kasumi-1 and MOLM13 cells; assay: CFU serial replating assay of shRNA-stable cells with KPT-9274; type: cell-based, human
Description: FIGS. 2A-2M show show representative data for genetic depletion of HDAC8 or SIRT6 increases vulnerability of AML cell lines to KPT-9274 treatment. FIGS. 2A-2D show data for knockout efficiency of CDS- and 3′UTR-targeting shRNAs in MOLM13 and Kasumi-1 cells as assessed with Western blotting (FIGS. 2A, 2D) with GAPDH as a loading control. Densitometric quantification of protein band intensity is shown (n=2) in FIGS. 2B, 2E. FIGS. 2E-2H show representative data for depletion of HDAC8 or SIRT6 (as indicated in graphs) and sensitization of AML cell lines to KPT-9274 treatment. Dose-response curves of shRNA-stable MOLM13 and Kasumi-1 cells for 24-hour and 48-hour treatments are plotted. Cell viability was measured with MTS. […] Scrambled or gene-targeting shRNA-stable MOLM13 or Kasumi-1 cells were treated with IC20 dose of KPT-9274 for 48 hour and stained with Annexin/PI for flow cytometry analysis. Data are shown as mean±SEM of % population from duplicates. FIGS. 2K-2L show representative data that KPT-9274 attenuates AML self-renewal and induces myeloid differentiation in HDAC8 or SIRT6-depleted cells. Quantification of the number of colonies formed by shRNA-stable Kasumi-1 and MOLM13 cells in the presence or absence of KPT-9274 in CFU assays. Indicated number of cells were seeded into Methocult and colonies were counted and replated by a double-blind approach after 7 days. Results are shown as mean±SEM of duplicates. *p<0.05. **p<0.01. […] For each condition, images were randomly taken from 6-12 fields of view. Scale bar=50 μm.
Colony-forming unit (CFU) assays. Age-matched cryopreserved primary cells from bone marrow and apheresis of AML patients with various co-mutations and CD34^+ healthy bone marrow cells were acquired from Ohio State University Comprehensive Cancer Center Leukemia Tissue Bank. […] Formed colonies were counted blindly after 7-14 days and re-plated at 10,000 cells/well. The images of colonies were captured with Echo revolving microscope. The images of Giemsa staining of cytospin preparations were acquired by CX43 Olympus inverted microscope. […]

MOLM13 cells = assay: MTS cell viability of shRNA-stable or sgRNA-transfected MOLM13 cells treated with KPT-9274; type: cell-based, human; settings: MOLM13, 48-hour treatment
Description: FIGS. 7A-7B show representative data for knockdown of selected genes has modest effects on MOLM13 responses to KPT-9274 treatment. […] For the graphs in FIGS. 7A-7B, the responses of parental, shRNA-stable and sgRNA-transfected MOLM13 cells to KPT-9274 treatment (48-hour treatments) are plotted. Cell viability was measured with MTS (y-axis). Results are shown as mean±SEM of 4 technical replicates and 3 biological replicates. Western blotting for knockdown efficiency is shown.
MTS assay. For MTS assays, AML cell lines or patient-derived cells were treated in a 96-well plate at 1-6×10^5 cells per well for 24-72 hours. Patient-derived CD34^+ primary cells were cultured in 96-well plates coated with collagen in the presence of 10 ng/ml IL-3, 10 ng/ml IL-6, 10 ng/ml SCF and 10 ng/ml GM-CSF. Cells were treated with increasing concentrations of KPT-9274 (0 nM to 10 μM) or vehicle control (dimethyl sulfoxide [DMSO]). […] MTS [3-(4,5-dimethylthiazol-2-yl)-5-(3-carboxymethoxyphenyl)-2-(4-sulfophenyl)-2H-tetrazolium](Pro-mega, Madison, WI) was incubated with drug-treated cells according to the manufacturer's instructions. Plates were read by using a BioTek synergy H4 hybrid multimode microplate reader (Thermo Fisher Scientific) at 490 nM. […]

Compound | weight loss [1] | tolerability of dose [2] | death of leukemia stem cells (leukemia stem cells) | colony formation and long-term self-renewal ([3]; HDAC8 or SIRT6-depleted MOLM13 and Kasumi-1 cells) | cell differentiation (Giemsa staining of cytospin preparations) ([3]; KPT-9274 with depletion of HDAC8 or SIRT6, cells derived from CFU assays) | colony numbers vs vehicle control ([3]; scramble groups, sublethal doses of KPT-9274) | synergy of knockdown of IMPA2, HEXA, PTGS1 and DCPS with KPT-9274 treatment (MOLM13 cells; MTS (FIG. 7A)) | impact of depletion of HDAC1, HDAC3 or HDAC6 with CRISPR on KPT-9274 sensitivity (MOLM13 cells; MTS (FIG. 7B))
CC(C)[C@H](C(=O)Nc1ccc(C(=O)NO)cc1)c1ccccc1 [AR-42, (S)—N-Hydroxy-4-(3-methyl-2-phenylbutanamido)benzamide] | did not observe any noticeable weight loss | tolerated | induce death of leukemia stem cells |  |  |  |  | 
Nc1ccc(/C=C/C(=O)NCc2cc3cc(-c4ccc(C(=O)N5CCC(F)(F)CC5)cc4)cc(-c4ccc(F)cc4)c3o2)cn1 [KPT-9274, (E)-3-(6-aminopyridin-3-yl)-N-[[5-[4-(4,4-difluoropiperidine-1-carbonyl)phenyl]-7-(4-fluorophenyl)-1-benzofuran-2-yl]methyl]prop-2-enamide] |  |  |  | suppressed colony formation | cooperatively differentiated AML cells | comparable | did not demonstrate strong synergies | did not have significant impact
